Two sequences from US12589143B2, “Human anti-PD-L1 peptide vaccines and methods of their use” (priority 2019, dated 2026) can be followed below.

The nature of experiment [1]: Mouse antibody isotyping assay. The experiment is classed as in vivo, Balb/c mice. As to the method: We also analyzed the different isotypes of antibodies being generated by vaccination.
Antibody isotypes (i.e. IgA, IgM, IgG1, IgG2a, IgG2b, IgG3) were determined using the Mouse Typer Isotyping Kit (BIO-RAD, Hercules, CA). Briefly, wells of a 96-well assay plate were coated with 200 ng peptide antigen in ddH2O, and incubated at 4° C. overnight. The plate was washed with washing buffer (0.05% Tween-20 and 1% horse sera in PBS). The plate was then blocked with 1% BSA in PBS at room temperature for 1 hour. 100 ul of diluted mice sera was added to each well for 2 hours and after washing the wells, 100 μl ready to use rabbit anti-mouse subclasses antibodies were added to each well respectively and incubated at room temperature for another 2 hours. The wells were washed again, 100 μl of 1/3000 dilution of goat anti-rabbit conjugated to HRP antibody (BIO-RAD, Hercules, CA) was added to each well and incubated for 1 hour at room temperature in dark. The plate was then washed and 50 μl prepared substrate solution was added to each well. The reaction was stopped with 25 μl 5% SDS stopping buffer. Absorbance at 415 nm was determined using an ELISA plate reader. Dilutions of each sera samples were determined by the ELISA titers shown in absorbance of 0.4 or higher after subtracting the background.

The next experiment concerns MVF-PD-L1 peptides. Nature of the experiment: Immunogenicity in rabbits: ELISA antibody titers of sera vs the immunogen. It counts as in vivo, New Zealand White rabbits. Conditions: after the second boost. As to the method: Immunogenicity of MVF-PD-L1 B-cell epitopes. New Zealand White rabbits were immunized with 1 mg of each MVF-peptide immunogens dissolved in dd H2O emulsified (1:1) in Montanide ISA 720 vehicle (Seppic) with 333 μg of N-acetylglucosamine-3yl-acetyl-1-alanyl-d-isoglutamine (nor-MDP). Rabbits were boosted with the same doses at 3-week's intervals. Blood was collected via the central auricular artery in rabbits. Blood was collected weekly (1Y+3, 2Y+1, 2Y+2,2Y+3, 3Y+1, 3Y+2 and sera tested for antibody titers by ELISA using the immunogens MVF-PD-L1 peptides. Sera (terminal) from rabbit (3Y+3) immunized with MVF-PD-1 peptide immunogens were tested individually versus the immunogen by ELISA. 200 ng/well peptide were used in duplicates to coat the ELISA plates. Titers are defined as the highest dilution of sera with an absorbance value of 0.2 after subtracting the blank.
For each peptide, vaccine antibodies were raised using New Zealand white rabbits purchased from Charles River Laboratories (Wilmington, MA, USA). […] Antibody titers were monitored by direct ELISA against the peptide immunogen, the peptide B cell epitope, and an acetylated version of the B-cell epitope. […] Peptide vaccine antibodies were purified by affinity chromatography using a protein A/G column and the concentration was measured by Coomassie protein assay. […]
On the technique in general: In an ELISA, binding on a coated surface is turned into a signal by an enzyme label.

Where no end group is shown, it is not given here.

As for “KLLSLIKGVIVHRLEGVEGPSLVTSEHELTCQAEGYPKAE (KLLSLIKGVIVHRLEGVEGPSLVTSEHELTCQAEGYPKAE-NH2) [PD-L1(130)]”, the “isotypes of antibodies elicited in the mice” value in experiment [1] (experiment 1 (CT26 WT)) and in experiment [1] (experiment 2 (CT26/HER-2)) was “predominantly of the IgG1 class” in each case. In the experiment with MVF-PD-L1 peptides, the antibody titers is on record as 64,000.
Take “KLLSLIKGVIVHRLEGVEGPSLYRCMISYGGADYKRITVK (KLLSLIKGVIVHRLEGVEGPSLYRCMISYGGADYKRITVK-NH2) [PD-L1(95)]”: the antibody titers in the experiment with MVF-PD-L1 peptides is recorded as 64,000.
